Measurements taken from patent publication EP0564461B1, “THE USE OF ANTIBODIES TO TNF OR FRAGMENTS DERIVED THEREOF AND XANTHINE DERIVATIVES FOR COMBINATION THERAPY AND COMPOSITIONS THEREFOR” (CELLTECH THERAPEUTICS LIMITED, priority 1990, dated 1992).
Read-outs that look alike come from different tables or passages of the source.

Legend:
E.coli LPS induced shock = conditions: Fig 1
Protocol: In a first experiment outbred mice were divided into groups and received treatment either with a hamster anti-murine TNF antibody TN3 19.12 or with the xanthine derivative, pentoxifylline.
Each group of animals received 60mg/kg E.coli LPS by intravenous injection into a tail vein.
Those groups of animals treated with TN3 19.12 received between 0.1 and 30mg/kg of the antibody by intravenous injection of 0.1ml of liquid into the tail vein 2 hours before LPS administration.
Those groups to be treated with pentoxifylline received between 1mg/kg and 300mg/kg intravenously five minutes prior to LPS administration.
In control experiments animals received an injection of an equivalent volume of saline.
The groups received one of three different treatment as follows: • A) Control - received 60mg/kg E.coli LPS intravenously followed by saline injection; • B) Received 1mg/kg TN3 19.12 i.v. 2 hrs prior to challenge with 60mg/kg E.coli LPS i.v. and 1mg/kg pentoxifylline i.v. 5 mins prior to challenge; • C) As B) but these mice also received repeat doses of 1mg/kg pentoxifylline 24,48 and 72 hours after LPS challenge.

[1] = system: Salmonella abortus equi LPS induced shock; test: Salmonella abortus equi LPS induced shock model in galactosamine sensitised mice (inhibition of mortality); format: in vivo, C57BL mice; conditions: 100mg/kg pentoxifylline alone; Fig 5
Protocol: Similar experiments to those described above were carried out in galactosamine sensitised C57BL mice which were challenged with LPS from Salmonella abortus equi. Mortality was measured 96 hrs after the LPS challenge.

In the case of `CC(=O)CCCCn1c(=O)c2c(ncn2C)n(C)c1=O` [pentoxifylline, 3,7-dimethyl-1-(5-oxohexyl)xanthine], the “effect on mortality (mean deaths per experiment)” value (E.coli LPS induced shock; pentoxifylline alone 1mg/kg i.v. five minutes prior to 60mg/kg E.coli LPS i.v.) is reported as “no effect”, the “effect on mortality (mean deaths per experiment)” value (E.coli LPS induced shock; pentoxifylline alone at higher doses than 1mg/kg (up to 300mg/kg) i.v. five minutes prior to LPS) is reported as “accelerated mortality” and the “protective effect (mortality)” value [1] is reported as “no protective effect”.
